The target in assay [1] is T1, prostaglandin EP4 receptor (Homo sapiens (Human), UniProt P35408). As to the kind of experiment: EP4 binding assay (Ki). Conditions: read-out: EP4 Ki EC50. From the text: (§1) U.S. patent application publication No. 20070129552, published on Jun. 7, 2007, incorporated by reference herein, describes the methods used to obtain the in vitro data in Table 1 below.
In another assay the target is TP (Homo sapiens (Human), UniProt P21731). As to the kind of experiment: Other receptors FLIPR: TP. The class given is cell-based. Conditions: NA undefined in patent.
Chain of TP (P21731 whole entry): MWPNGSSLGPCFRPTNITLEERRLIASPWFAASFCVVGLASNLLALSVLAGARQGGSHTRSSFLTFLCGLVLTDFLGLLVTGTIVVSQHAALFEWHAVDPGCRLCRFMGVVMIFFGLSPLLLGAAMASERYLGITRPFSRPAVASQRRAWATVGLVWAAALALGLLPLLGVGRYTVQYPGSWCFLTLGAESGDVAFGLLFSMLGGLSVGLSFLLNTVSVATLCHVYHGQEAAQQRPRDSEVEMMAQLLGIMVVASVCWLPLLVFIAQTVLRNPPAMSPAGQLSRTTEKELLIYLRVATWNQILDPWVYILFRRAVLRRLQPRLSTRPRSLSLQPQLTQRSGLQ
Excerpt: as §1

Assay [2] has as its target T2, EP2 (Homo sapiens (Human), UniProt P43116). As to the kind of experiment: EP2 cAMP functional assay. The class given is cell-based.
Excerpt: as §1

The next assay concerns the target EP3 (Homo sapiens (Human), UniProt P43115). As to the kind of experiment: Other receptors FLIPR: EP3. The format is cell-based. Conditions: NA undefined in patent.
Excerpt: as §1

In assay [3] the target is T2, EP2. As to the kind of experiment: EP2 binding assay (Ki).
Excerpt: as §1

Assay [4] has as its target T1, prostaglandin EP4 receptor. As to the kind of experiment: EP4 cAMP functional assay. The class given is cell-based.
Excerpt: as §1

Each structure is given as a SMILES string.

T2 sequence (P43116 whole entry): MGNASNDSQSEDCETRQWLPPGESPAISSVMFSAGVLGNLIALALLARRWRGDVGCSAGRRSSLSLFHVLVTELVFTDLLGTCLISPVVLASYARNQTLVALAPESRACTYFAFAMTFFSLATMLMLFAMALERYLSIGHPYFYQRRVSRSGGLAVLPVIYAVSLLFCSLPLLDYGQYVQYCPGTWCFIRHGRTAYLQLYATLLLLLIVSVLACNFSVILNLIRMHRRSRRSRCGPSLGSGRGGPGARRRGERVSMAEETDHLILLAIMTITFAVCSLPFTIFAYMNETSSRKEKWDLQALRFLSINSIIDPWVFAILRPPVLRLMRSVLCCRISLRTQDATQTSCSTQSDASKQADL
Chain of EP3 (P43115 whole entry): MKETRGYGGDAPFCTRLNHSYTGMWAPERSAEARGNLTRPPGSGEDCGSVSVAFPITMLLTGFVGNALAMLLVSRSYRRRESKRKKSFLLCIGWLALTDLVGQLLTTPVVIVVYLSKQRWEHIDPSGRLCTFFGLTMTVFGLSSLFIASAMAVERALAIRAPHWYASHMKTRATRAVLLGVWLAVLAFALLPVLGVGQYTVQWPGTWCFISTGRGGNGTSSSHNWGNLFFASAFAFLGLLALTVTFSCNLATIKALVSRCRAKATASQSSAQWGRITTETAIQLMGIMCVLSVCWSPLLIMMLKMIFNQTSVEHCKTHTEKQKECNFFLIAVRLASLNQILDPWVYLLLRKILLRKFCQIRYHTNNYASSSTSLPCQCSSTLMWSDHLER
T1 sequence (P35408 whole entry): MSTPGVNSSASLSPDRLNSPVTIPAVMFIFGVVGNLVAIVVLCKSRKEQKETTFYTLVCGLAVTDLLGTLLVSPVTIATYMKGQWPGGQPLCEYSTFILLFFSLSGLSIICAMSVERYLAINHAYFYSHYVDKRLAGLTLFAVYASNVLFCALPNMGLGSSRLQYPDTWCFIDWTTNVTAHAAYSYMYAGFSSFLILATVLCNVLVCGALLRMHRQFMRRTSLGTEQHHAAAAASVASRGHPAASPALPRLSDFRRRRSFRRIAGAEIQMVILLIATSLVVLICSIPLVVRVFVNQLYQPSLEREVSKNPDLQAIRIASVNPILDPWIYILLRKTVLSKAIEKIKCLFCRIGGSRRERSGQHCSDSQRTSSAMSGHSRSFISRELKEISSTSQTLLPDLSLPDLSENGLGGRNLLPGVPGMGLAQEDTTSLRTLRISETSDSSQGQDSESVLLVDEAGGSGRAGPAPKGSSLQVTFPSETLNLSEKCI

With `O=C(O)c1ccc(CC[C@H]2C(=O)CC[C@@H]2/C=C/C(O)Cc2cccc(F)c2)cc1` (single isomer, unassigned) [Entry 6, (E)-4-(2-(2-(4-(3-fluorophenyl)-3-hydroxybut-1-en-1-yl)-5-oxocyclopentyl)ethyl)benzoic acid], the figures for the Ki (in assay [1]; at EP2 [3]) were 2 nM and 1780 nM, respectively. The concentration giving a half-maximal response (EC50) (commonly the concentration needed to bring the measured effect to its halfway point) at TP was 7190 nM; on EP2 [2], 10 nM; at EP3, 721 nM; in assay [4], 0.04 nM.

On to `O=C(O)c1ccc(CC[C@H]2C(=O)CC[C@@H]2/C=C/C(O)Cc2ccc(F)c(F)c2)cc1` (single isomer, unassigned) [Entry 24, (E)-4-(2-(2-(4-(3,4-difluorophenyl)-3-hydroxybut-1-en-1-yl)-5-oxocyclopentyl)ethyl)benzoic acid], for which the Ki (as a rule, a dissociation constant, usually derived from enzyme kinetics or from competition with a known ligand) is 3 nM in assay [1] and 1530 nM at EP2 [3]. For the same compound, the EC50 at TP worked out at 2450 nM; at EP2 [2], 30 nM; at EP3 it was 1510 nM; in assay [4], 0.3 nM.

With `O=C(O)c1ccc(CC[C@H]2C(=O)CC[C@@H]2/C=C/C(O)Cc2ccc(F)cc2)cc1` (single isomer, unassigned) [Entry 20, (E)-4-(2-(2-(4-(4-fluorophenyl)-3-hydroxybut-1-en-1-yl)-5-oxocyclopentyl)ethyl)benzoic acid], the inhibition constant Ki in assay [1] turned out to be 3 nM; at EP2 [3], 745 nM. For the same compound, the EC50 is 5600 nM on TP, 11 nM on EP2 [2], 952 nM on EP3 and 0.2 nM in assay [4].

Values taken from patent US9394273B2, “Therapeutic prostaglandin receptor agonists” (Allergan, Inc., priority 2014, dated 2016).
